Reference: ChEMBL document CHEMBL1140266, “(2R)-2-methylchromane-2-carboxylic acids: discovery of selective PPARalpha agonists as hypolipidemic agents” (Bioorg Med Chem Lett, 2005)

Tests used:
in vivo [1] = conditions: Sprague-Dawley, rat, po, 2 mg/kg
[2] = biological target: T1, Peroxisome proliferator-activated receptor alpha (Homo sapiens, UniProt Q07869); type: functional, cell-based, COS-1
T1 sequence (Q07869 whole entry): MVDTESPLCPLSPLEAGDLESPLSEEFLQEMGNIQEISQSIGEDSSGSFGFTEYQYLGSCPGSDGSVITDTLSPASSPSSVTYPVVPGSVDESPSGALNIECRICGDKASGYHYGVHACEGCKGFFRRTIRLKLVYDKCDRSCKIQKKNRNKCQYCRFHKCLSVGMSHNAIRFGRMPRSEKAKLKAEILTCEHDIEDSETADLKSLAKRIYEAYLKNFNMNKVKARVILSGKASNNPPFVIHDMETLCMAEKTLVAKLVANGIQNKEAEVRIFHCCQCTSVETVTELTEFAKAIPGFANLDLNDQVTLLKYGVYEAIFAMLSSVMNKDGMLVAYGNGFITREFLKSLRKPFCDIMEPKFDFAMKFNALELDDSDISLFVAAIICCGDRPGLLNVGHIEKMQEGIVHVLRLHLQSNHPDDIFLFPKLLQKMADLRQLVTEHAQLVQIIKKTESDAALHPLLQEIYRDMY
Description: Agonist activity against human PPARalpha in COS-1 cell Gal4 assay

[3] = biological target: T2, Peroxisome proliferator-activated receptor delta (Homo sapiens, UniProt Q03181)
T2 sequence (Q03181 whole entry): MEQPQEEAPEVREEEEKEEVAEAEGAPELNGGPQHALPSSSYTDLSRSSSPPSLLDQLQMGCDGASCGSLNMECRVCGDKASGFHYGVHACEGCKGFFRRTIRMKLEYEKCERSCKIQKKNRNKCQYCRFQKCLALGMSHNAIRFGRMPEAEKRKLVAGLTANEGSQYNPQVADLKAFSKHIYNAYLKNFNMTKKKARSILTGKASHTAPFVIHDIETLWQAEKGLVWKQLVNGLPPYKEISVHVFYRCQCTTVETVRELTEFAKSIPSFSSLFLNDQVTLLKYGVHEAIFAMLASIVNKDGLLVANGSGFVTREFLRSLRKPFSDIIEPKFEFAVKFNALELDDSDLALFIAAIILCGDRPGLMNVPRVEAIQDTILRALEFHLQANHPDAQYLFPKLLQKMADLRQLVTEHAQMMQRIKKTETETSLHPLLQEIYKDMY
Description: In vitro binding affinity against human PPARdelta

in vivo [4] = conditions: Sprague-Dawley, rat, iv, 0.5 mg/kg
in vivo [5] = conditions: Sprague-Dawley, rat, iv, 0.5 mg/kg; remark: listed apart in the source
Description: Hail-life period determined against Sprague-Dawley Rat at 0.5 mg/kg after intravenous administration; (Number of rats = 3)

[6] = biological target: T1, Peroxisome proliferator-activated receptor alpha
Description: In vitro binding affinity against human PPARalpha

Cricetinae gen. sp. [7] = type: functional, Cricetulus griseus; conditions: at 10 mg/kg
Description: In vivo efficacy at 10 mpk against Hamster for cholesterol lowering effect after oral dosing; Number of animals= 9 (vehicle 0.5% methylcellulose)

Cricetinae gen. sp. [8] = type: functional; conditions: at 10 mg/kg
Description: In vivo efficacy at 10 mpk against Hamster for triglceride lowering effect after oral dosing; Number of animals= 9 (vehicle 0.5% methylcellulose)

Cricetinae gen. sp. [9] = type: functional, Cricetulus griseus; conditions: at 10 mg/kg; remark: listed apart in the source
Description: In vivo efficacy at 10 mpk against Hamster for triglyceride lowering effect after oral dosing; Number of animals= 9 (vehicle 0.5% methylcellulose)

[10] = biological target: T1, Peroxisome proliferator-activated receptor alpha; type: functional, cell-based; conditions: cos-1
Description: Agonist activity against human PPARalpha in COS-1 cell Gal4 assay; NA= Not active (less than 20% activation at 10 uM)

in vivo [11] = conditions: beagle, dog, iv, 0.5 mg/kg
Description: Hail-life period determined against adult Beagle dog at 0.5 mg/kg after intravenous administration; (Number of rats = 3)

in vivo [12] = conditions: cercopithecidae, iv, 0.5 mg/kg
in vivo [13] = conditions: rhesus monkey, po, 2 mg/kg
Description: Bioavailability determined against adult Rhesus monkey at 2 mg/kg after peroral administration

in vivo [14] = conditions: beagle, dog, iv, 0.5 mg/kg; remark: listed apart in the source
in vivo [15] = conditions: beagle, dog, po, 2 mg/kg
Description: Bioavailability determined against adult Beagle dog at 2 mg/kg after peroral administration

in vivo [16] = conditions: cercopithecidae, iv, 0.5 mg/kg; remark: listed apart in the source
Description: Hail-life period determined against adult Rhesus monkey at 0.5 mg/kg after intravenous administration; (Number of rats = 3)

Cricetinae gen. sp. [17] = type: functional; conditions: at 100 mg/kg
Cricetinae gen. sp. [18] = type: functional; conditions: at 100 mg/kg; remark: listed apart in the source

Row | EC50 [2] [nM] | IC50 [3] [nM] | IC50 [6] [nM] | Compound | other results
1 | 5 | > 50000 | 15 | CC[C@]1(C(=O)O)CCc2ccc(OCCCOc3ccc(C4CCCCC4)cc3Cl)cc2O1 | bioavailability (in vivo [1]): 57%; clearance (in vivo [4]): 8.2 mL/min/kg; half-life (in vivo [5]): 1.2 h
2 | 300 | > 50000 | 610 | CC[C@]1(C(=O)O)CCc2ccc(OCCCOc3ccc(C4CCC5(CC4)CC5)cc3Cl)cc2O1 | bioavailability (in vivo [1]): 37%; clearance (in vivo [4]): 0.62 mL/min/kg; half-life (in vivo [5]): 4.5 h
3 | 23 | > 15000 | 48 | CC(C)c1ccc(OCCCOc2ccc3c(c2)O[C@@](C)(C(=O)O)CC3)c(Cl)c1 | bioavailability (in vivo [1]): 54%; clearance (in vivo [4]): 6.8 mL/min/kg; half-life (in vivo [5]): 1.3 h; Efficacy (Cricetinae gen. sp. [7]): -40%; Efficacy (Cricetinae gen. sp. [8]): -18%
4 | 240 | > 15000 | 600 | C[C@]1(C(=O)O)CCc2ccc(OCCCOc3ccc(OCC4CC4)cc3Cl)cc2O1 | bioavailability (in vivo [1]): 76%; clearance (in vivo [4]): 5.1 mL/min/kg; half-life (in vivo [5]): 2.9 h; Efficacy (Cricetinae gen. sp. [9]): -13%; Efficacy (Cricetinae gen. sp. [7]): -39%
5 | 40 | 7400 | 240 | CC(C)Oc1ccc(OCCCOc2ccc3c(c2)O[C@@](C)(C(=O)O)CC3)c(Cl)c1 | –
6 | 700 | > 50000 | 1700 | CC[C@]1(C(=O)O)CCc2ccc(OCCCOc3ccc(C4CCC(C)(C)CC4)cc3Cl)cc2O1 | bioavailability (in vivo [1]): 95%; clearance (in vivo [4]): 2.7 mL/min/kg; half-life (in vivo [5]): 6.8 h
7 | 420 | > 50000 | 1600 | C[C@]1(C(=O)O)CCc2ccc(OCCCOc3ccc(C4CCC5(CC4)CC5)cc3Cl)cc2O1 | –
8 | 4 | > 50000 | 66 | CC[C@]1(C(=O)O)CCc2ccc(OCCCOc3ccc(OCC(F)(F)F)cc3Cl)cc2O1 | –
9 | 2 | > 15000 | 28 | C[C@]1(C(=O)O)CCc2ccc(OCCCOc3ccc(C4CCCCC4)cc3Cl)cc2O1 | –
10 | 7 | > 50000 | 29 | CC[C@]1(C(=O)O)CCc2ccc(OCCCOc3ccc(CC(C)C)cc3Cl)cc2O1 | –
11 | 22 | > 50000 | 710 | CC[C@]1(C(=O)O)CCc2ccc(OCCCOc3ccc(C4CCOCC4)cc3Cl)cc2O1 | bioavailability (in vivo [1]): 77%; clearance (in vivo [4]): 15.6 mL/min/kg; half-life (in vivo [5]): 0.9 h
12 | 6 | 7600 | 16 | CC(C)Cc1ccc(OCCCOc2ccc3c(c2)O[C@@](C)(C(=O)O)CC3)c(Cl)c1 | bioavailability (in vivo [1]): 87%; clearance (in vivo [4]): 2.6 mL/min/kg; half-life (in vivo [5]): 2.9 h; Efficacy (Cricetinae gen. sp. [7]): -50%; Efficacy (Cricetinae gen. sp. [8]): -29%
13 | – | > 50000 | > 15000 | C[C@]1(C(=O)O)CCc2ccc(OCCCOc3ccc(F)cc3Cl)cc2O1 | –
14 | 120 | 6900 | 810 | O=C(O)C1CCc2ccc(OCCCOc3ccc(OCC(F)(F)F)cc3Cl)cc2O1 (stereo unspecified) | –
15 | – | > 50000 | > 50000 | C[C@@]1(C(=O)O)CCc2ccc(OCCCOc3ccc(OCC(F)(F)F)cc3Cl)cc2O1 | EC50 [10]: Not Active
16 | 1000 | > 50000 | 1700 | CC1(C)CCC(c2ccc(OCCCOc3ccc4c(c3)O[C@@](C)(C(=O)O)CC4)c(Cl)c2)CC1 | –

Row | EC50 [2] [nM] | IC50 [3] [nM] | IC50 [6] [nM] | Compound | other results
17 | 140 | > 15000 | 390 | C[C@]1(C(=O)O)CCc2ccc(OCCCOc3ccc(OCC4CCC4)cc3Cl)cc2O1 | –
18 | 40 | > 15000 | 110 | C[C@]1(C(=O)O)CCc2ccc(OCCCOc3ccc(OCC(F)(F)F)cc3Cl)cc2O1 | bioavailability (in vivo [1]): 60%; clearance (in vivo [4]): 5.1 mL/min/kg; half-life (in vivo [5]): 2.7 h; half-life (in vivo [11]): 6.2 h; Efficacy (Cricetinae gen. sp. [9]): -54%; Efficacy (Cricetinae gen. sp. [7]): -60%; clearance (in vivo [12]): 5.6 mL/min/kg; bioavailability (in vivo [13]): 88%; clearance (in vivo [14]): 5.8 mL/min/kg; bioavailability (in vivo [15]): 100%; half-life (in vivo [16]): 2.5 h
19 | 61 | 5000 | 140 | C[C@]1(C(=O)O)CCc2ccc(OCCCOc3ccc(Oc4ccc(F)cc4)cc3Cl)cc2O1 | –
20 | – | > 50000 | 3900 | COc1ccc(OCCCOc2ccc3c(c2)O[C@@](C)(C(=O)O)CC3)c(Cl)c1 | –
21 | 20 | 490 | 57 | C[C@]1(C(=O)O)CCc2ccc(OCCCOc3ccc(OC(F)(F)F)cc3Cl)cc2O1 | –
22 | 24 | > 15000 | 38 | CC[C@]1(C(=O)O)CCc2ccc(OCCCOc3ccc(C(C)C)cc3Cl)cc2O1 | –
23 | 6 | 1900 | 37 | CC[C@]1(C(=O)O)CCc2ccc(OCCCOc3ccc(OC(F)(F)F)cc3Cl)cc2O1 | –
24 | 36 | 2300 | 90 | CC[C@]1(C(=O)O)CCc2ccc(OCCCOc3ccc(C(F)(F)F)cc3Cl)cc2O1 | –
25 | 9 | 10500 | 40 | C[C@]1(C(=O)O)CCc2ccc(OCCCOc3ccc(C4CCCC4)cc3Cl)cc2O1 | bioavailability (in vivo [1]): 54%; clearance (in vivo [4]): 6.8 mL/min/kg; half-life (in vivo [5]): 1.3 h; Efficacy (Cricetinae gen. sp. [7]): -40%; Efficacy (Cricetinae gen. sp. [8]): -21%
26 | 220 | > 15000 | 1380 | CCOc1ccc(OCCCOc2ccc3c(c2)O[C@@](C)(C(=O)O)CC3)c(Cl)c1 | –
27 | 4 | 14000 | 7 | CCC(C)(C)c1ccc(OCCCOc2ccc3c(c2)O[C@@](C)(C(=O)O)CC3)c(Cl)c1 | –
28 | – | > 15000 | > 15000 | CC[C@]1(C(=O)O)CCc2ccc(OCCCOc3ccc(F)cc3Cl)cc2O1 | EC50 [10]: Not Active
29 | 80 | > 15000 | 230 | CC(C)(C)c1ccc(OCCCOc2ccc3c(c2)O[C@@](C)(C(=O)O)CC3)c(Cl)c1 | –
30 | 130 | 4100 | 400 | CC[C@]1(C(=O)O)CCc2ccc(OCCCOc3ccc(Cl)cc3Cl)cc2O1 | –
31 | 28 | > 50000 | 180 | CC[C@]1(C(=O)O)CCc2ccc(OCCCOc3ccc(C(C)(C)C)cc3Cl)cc2O1 | –
32 | – | – | – | CC(C)OC(=O)C(C)(C)Oc1ccc(C(=O)c2ccc(Cl)cc2)cc1 [FENOFIBRATE] | Efficacy (Cricetinae gen. sp. [17]): -43%; Efficacy (Cricetinae gen. sp. [18]): -23%
